Measurements from patent US10835542B2, “9-aminomethyl minocycline compounds and use thereof in treating community-acquired bacterial pneumonia (CABP)” (Paratek Pharmaceuticals, Inc., priority 2016, dated 2020).
Where two headings read alike, the source gives them in different places.

Assays:
Staphylococcus aureus = type: in vivo, human; settings: PTE, microITT
[1] = Intra-pulmonary (ELF, AC/AM by BAL) and plasma PK after multiple iv doses in healthy adult subjects; type: in vivo, human; settings: for Kp at 0.5 h / Kp at 1 h / Kp at 2 h / Kp at 4 h / Kp at 8 h / Kp at 12 h / Kp at 24 h / AUC / Kp: intravenous, 100 mg; for concentration at 0.5 h: 0.5 h after fifth 100 mg iv dose; for concentration at 1 h: 1 h after fifth 100 mg iv dose; for concentration at 2 h: 2 h after fifth 100 mg iv dose; for concentration at 4 h: 4 h after fifth 100 mg iv dose; for concentration at 8 h: 8 h after fifth 100 mg iv dose; for concentration at 12 h: 12 h after fifth 100 mg iv dose; for concentration at 24 h: 24 h after fifth 100 mg iv dose
Method: Concomitant blood samples were taken to compare tissue with serum antibiotic concentrations. […]
One standard bronchoscopy was performed for each subject. […] A blood sample was taken at the time of bronschoscopy for plasma urea measurement.
During the bronchoscopy 4 aliquots of 50 mL each of sterile saline solution were instilled into the right lobe of the lungs, immediately aspirated, and placed on ice. The first bronchioalveolar lavage aliquot instilled (BALX) fraction was prepared and analyzed separately from subsequent instillations. The aspirate from the second through the fourth instillation, once pooled, represented the BAL fraction. An aliquot of BAL was removed and used to determine the cell count and differential cell composition including pulmonary macrophages. The remaining supernatant was centrifuged and the supernatant and cell pellet were immediately frozen pending analysis. An aliquot of the BAL supernatant was frozen separately for urea assay. The amount of test article detected in the cell pellet was normalized by the corresponding fraction of macrophages. Fraction BALX was analyzed in a similar manner, except the cell pellet was not assessed or assayed. A blood sample to determine urea concentration was obtained at the time of the second instillation (±3 minutes). The concentration of test article detected in the BALX and BAL fluid was normalized by the dilution factor with respect to urea levels detected in the BALX and BAL fractions respectively.
All completed subjects with evaluable plasma PK parameter data were included in the PK data analysis.
All the biofluid concentrations were expressed in ng/mL. All concentrations below the limit of quantification (BLQ) or missing data were labeled as such in the concentration data listings. Concentrations BLQ were treated as zero in summary statistics for concentration data only. They were not considered for calculation of PK Parameters (with the exception of the predose samples). PK parameters were determined using non-compartmental method(s) using WinNonlin Pro.
These were obtained from the above plasma PK parameter calculations (AUC0-24 and AUC0-12). The tigecycline concentration information was serve as an internal validation for assay sensitivity purposes.
The volume of the lung ELF within the BAL fluid was estimated by (ureaBAL/ureaplasma), where ureaBAL and ureaplasma represented the concentrations of urea in the BAL fluid and plasma, respectively.
AUCELF and AUCAC were determined from pooled pulmonary concentration data and were summarized by treatment group. […] For the tigecycline cohort there were 5 ELF and AC concentrations for each of the 4 timepoints over the 12 hour dosing interval.
For PK blood collection and processing, all blood samples were taken by either direct venipuncture or an indwelling cannula inserted in a forearm vein (on the arm contralateral to the infusion site) at the timepoints specified in the Study Flowchart. The PK blood sample collected at the bronchoscopy scheduled time was obtained at the time of the second BAL instillation (±3 minutes) from the arm contralateral to the infusion site.
Blood samples were collected into labeled 4 mL tubes containing sodium heparin. Immediately after the sample was collected, the tube was gently inverted 5 to 8 times to thoroughly mix the anticoagulant and then placed upright in a cryoblock or test tube rack surrounded by ice until centrifugation. Samples were centrifuged at 1500×g (gravity) for 10 minutes at approximately 4° C. within 30 minutes of collection. The resultant plasma was divided into 2 equal aliquots, placed in individual cryovials, and immediately frozen at −70° C. or colder within 1 hour of collection. The tubes were kept frozen at −70° C. or colder pending shipment to the bioanalytical laboratory.

[2] = human, ELF (epithelial lung fluid from BAL) relative to plasma, read-out: ELF to Plasma (Mean, SD)
[3] = human, alveolar macrophages (AM), read-out: AM concentration (mean ± SD)
[4] = human, epithelial lining fluid (ELF), read-out: ELF concentration (mean ± SD)
[5] = human, read-out: AM to Plasma (Mean, SD)
[6] = human, plasma, read-out: Plasma concentration at time of BAL (mean ± SD)

Question: With `CN(C)c1cc(CNCC(C)(C)C)c(O)c2c1C[C@H]1C[C@H]3[C@H](N(C)C)C(O)=C(C(N)=O)C(=O)[C@@]3(O)C(O)=C1C2=O` [Compound 1, 9-[(2,2-dimethyl-propylamino)-methyl]-minocycline] as the compound, how does the “Clinical Success n (%)” value (Staphylococcus aureus; Staphylococcus aureus MRSA, N1 = 0 (Compound 1), 1 (Moxifloxacin)) read?
Answer: Its value is 0 n (%).

Question: What about the “Clinical Success n (%)” value (Staphylococcus aureus; Staphylococcus aureus MSSA, N1 = 11 (Compound 1), 10 (Moxifloxacin)) of the same compound?
Answer: The value was 8 (72.7) n (%).

Question: And the “Clinical Success n (%)” value (Staphylococcus aureus; baseline pathogen Staphylococcus aureus, N1 = 11 (Compound 1), 11 (Moxifloxacin))?
Answer: The value was 8 (72.7) n (%).

Question: What about the “mean concentration in ELF higher than that in plasma” value ([1]; FIG. 1, concentration vs. time profile) of the same compound?
Answer: The value was “at least 40%”.

Question: What about the “maximum concentration (plasma), mean ± SD” value ([1]; after the fifth 100 mg iv dose) of the same compound?
Answer: Its value is 2.26 ± 0.76 µg/mL.

Question: And the Kp at 0.5 h [1, 2]?
Answer: The Kp at 0.5 h was 0.95 ± 0.56.

Question: And the Kp at 1 h [1, 2]?
Answer: Its Kp at 1 h is 2.72 ± 1.26.

Question: What about the Kp at 2 h [1, 2] of the same compound?
Answer: The Kp at 2 h was 1.5 ± 0.61.

Question: What about the Kp at 4 h [1, 2] of the same compound?
Answer: The Kp at 4 h was 1.79 ± 0.49.

Question: What about the Kp at 8 h [1, 2] of the same compound?
Answer: Its Kp at 8 h is 1.07 ± 0.45.

Question: And the Kp at 12 h [1, 2]?
Answer: Its Kp at 12 h is 1.44 ± 0.57.

Question: And the Kp at 24 h [1, 2]?
Answer: The Kp at 24 h was 1.65 ± 0.86.

Question: And the AUC ([1]; human, ELF (epithelial lung fluid from BAL), AUC0-24 based on mean concentration at each BAL sampling time, read-out: ELF AUCmean)?
Answer: The AUC was 17200 ng·h/mL.

Question: What about the AUC ([1]; human, ELF (epithelial lung fluid from BAL), AUC0-24 based on median concentration at each BAL sampling time, read-out: ELF AUCmedian) of the same compound?
Answer: Its AUC is 16700 ng·h/mL.

Question: And the Kp ([1]; human, alveolar cells (AC) / plasma, based on AUC0-24 of mean concentrations, read-out: Ratio AC:Plasma (AUCmean))?
Answer: The Kp was 25.8.

Question: What about the Kp ([1]; human, alveolar cells (AC) / plasma, based on AUC0-24 of median concentrations, read-out: Ratio AC:Plasma (AUCmedian)) of the same compound?
Answer: Its Kp is 24.8.

Question: And the AUC ([1]; human, alveolar cells (AC, BAL cell pellet), AUC0-24 based on mean concentration at each BAL sampling time, read-out: AC AUCmean)?
Answer: Its AUC is 302000 ng·h/mL.

Question: What about the AUC ([1]; human, alveolar cells (AC, BAL cell pellet), AUC0-24 based on median concentration at each BAL sampling time, read-out: AC AUCmedian) of the same compound?
Answer: The AUC was 292000 ng·h/mL.

Question: And the Kp ([1]; human, alveolar cells (AC, mostly AM) / plasma, FIG. 1, concentration vs. time profile, read-out: mean concentration in AC (mostly AM) higher than that in plasma)?
Answer: Its Kp is about 25.

Question: And the concentration at 0.5 h [1, 3]?
Answer: The concentration at 0.5 h was 14300 ± 9300 ng/mL.

Question: What about the concentration at 1 h [1, 3] of the same compound?
Answer: The concentration at 1 h was 12800 ± 8480 ng/mL.

Question: And the concentration at 2 h [1, 3]?
Answer: Its concentration at 2 h is 10800 ± 7590 ng/mL.

Question: What about the concentration at 4 h [1, 3] of the same compound?
Answer: The concentration at 4 h was 18000 ± 7170 ng/mL.

Question: What about the concentration at 8 h [1, 3] of the same compound?
Answer: Its concentration at 8 h is 12300 ± 4700 ng/mL.

Question: And the concentration at 12 h [1, 3]?
Answer: Its concentration at 12 h is 12300 ± 4610 ng/mL.

Question: What about the concentration at 24 h [1, 3] of the same compound?
Answer: The concentration at 24 h was 10400 ± 4040 ng/mL.

Question: And the Kp ([1]; human, epithelial lining fluid (ELF) / plasma, penetration ratio based on AUC0-24 of mean concentrations, read-out: Ratio ELF:Plasma (AUCmean))?
Answer: The Kp was 1.47.

Question: What about the Kp ([1]; human, epithelial lining fluid (ELF) / plasma, penetration ratio based on AUC0-24 of median concentrations, read-out: Ratio ELF:Plasma (AUCmedian)) of the same compound?
Answer: Its Kp is 1.42.

Question: What about the concentration at 0.5 h [1, 4] of the same compound?
Answer: Its concentration at 0.5 h is 1730 ± 1010 ng/mL.

Question: And the concentration at 1 h [1, 4]?
Answer: The concentration at 1 h was 2250 ± 720 ng/mL.

Question: And the concentration at 2 h [1, 4]?
Answer: The concentration at 2 h was 1510 ± 940 ng/mL.

Question: And the concentration at 4 h [1, 4]?
Answer: The concentration at 4 h was 950 ± 330 ng/mL.

Question: And the concentration at 8 h [1, 4]?
Answer: The concentration at 8 h was 580 ± 190 ng/mL.

Question: And the concentration at 12 h [1, 4]?
Answer: The concentration at 12 h was 610 ± 290 ng/mL.

Question: What about the concentration at 24 h [1, 4] of the same compound?
Answer: The concentration at 24 h was 410 ± 130 ng/mL.

Question: And the Kp at 0.5 h [1, 5]?
Answer: The Kp at 0.5 h was 8.12 ± 5.95.

Question: And the Kp at 1 h [1, 5]?
Answer: The Kp at 1 h was 13.8 ± 7.38.

Question: And the Kp at 2 h [1, 5]?
Answer: The Kp at 2 h was 12.3 ± 6.57.

Question: What about the Kp at 4 h [1, 5] of the same compound?
Answer: Its Kp at 4 h is 34.7 ± 15.1.

Question: What about the Kp at 8 h [1, 5] of the same compound?
Answer: The Kp at 8 h was 23.1 ± 11.2.

Question: And the Kp at 12 h [1, 5]?
Answer: Its Kp at 12 h is 29 ± 8.78.

Question: And the Kp at 24 h [1, 5]?
Answer: The Kp at 24 h was 40.3 ± 10.3.

Question: And the AUC ([1]; human, plasma, AUC0-24 based on mean concentration at each BAL sampling time, read-out: Plasma AUCmean)?
Answer: The AUC was 11700 ng·h/mL.

Question: What about the AUC ([1]; human, plasma, AUC0-24 based on median concentration at each BAL sampling time, read-out: Plasma AUCmedian) of the same compound?
Answer: The AUC was 11800 ng·h/mL.

Question: And the concentration at 0.5 h [1, 6]?
Answer: Its concentration at 0.5 h is 1800 ± 130 ng/mL.

Question: What about the concentration at 1 h [1, 6] of the same compound?
Answer: Its concentration at 1 h is 890 ± 190 ng/mL.

Question: And the concentration at 2 h [1, 6]?
Answer: The concentration at 2 h was 930 ± 330 ng/mL.

Question: What about the concentration at 4 h [1, 6] of the same compound?
Answer: The concentration at 4 h was 590 ± 150 ng/mL.

Question: And the concentration at 8 h [1, 6]?
Answer: The concentration at 8 h was 560 ± 120 ng/mL.

Question: And the concentration at 12 h [1, 6]?
Answer: Its concentration at 12 h is 420 ± 70 ng/mL.

Question: And the concentration at 24 h [1, 6]?
Answer: The concentration at 24 h was 270 ± 50 ng/mL.

Question: What about the Vd ([1]; human, plasma, after the fifth 100 mg iv dose, read-out: volume of distribution, mean ± SD) of the same compound?
Answer: The Vd was 165 ± 58 L.
